For test [1], the system named is chronic model of reflux esophagitis in rats. Kind of test: Chronic acid reflux esophagitis in rat (forestomach ligation and pyloric stenosis). To be noted: 15 days; for Occurrence of Esophagitis: animals affected/surviving. Type of test: in vivo. An excerpt: The method was according to Omura N., et al. (Scand. J gastroenterol. 1999; 34:948-953) with slight modifications.
Male Wistar rats, 10 weeks old, were kept in controlled animal room 1 week prior to use and fed with standard diet. A day before the experiment rats were deprived of food but allowed free access to water.
This model consists of gastric outlet obstruction obtained by ligation of forestomach and pyloric stenosis. Rats were operated under air/halothane anaesthesia; after opening the abdomen with a median incision, the transitional region between forestomach and the glandular portion was ligated and then the forestomach was blocked with other two ligations. Pyloric stenosis were obtained by wrapping a duodenum near the pylorus with a piece (about 2 mm) of a catheter (3.5 mm inner diameter) as a ring. The ring was closed by thermocautery and fixed to the pylorus with a nylon thread. The abdomen was closed by suturing.
After the operation the rats (10 animals per group) were deprived of diet for 48 h but had free access to water.
Drugs were administered once a day, starting on day zero, by subcutaneous injection. During the experiment body weight as well as the mortality were recorded.
The animals were killed 15 days later by overdose of ether inhalation. The abdomen was opened and the esophagus excised and placed on a cork plate. The presence and extension of esophagitis sites was evaluated by macroscopic observation. Each site of esophagitis was measured (mm of length×mm of width). Data were expressed as mm^2 of esophagitis area (mean area group).

In test [2] the test system is acute reflux esophagitis in pylorus-ligated rats. Kind of test: Acute reflux esophagitis in pylorus-ligated rats (macroscopic lesion index). Type of test: in vivo, rat. Details: key to Average Score lesions: lesion index 0 = no lesion to 6 = hemorrhage >40 mm or perforation. The following applies: for % Effect vs. control / Average Score lesions: 3 h after ligation; for ED50: Rattus norvegicus, intraduodenal, drug administered separately, intraduodenally, from dose-response regression line, read-out: ED50 (dose which reduces of 50% the esophagus lesions). As to the method: Male rats of 175-200 g body weight were fasted for 24 hours prior the experiment. Water was allowed ad libitum. Under ether anaesthesia, the abdomen was incised along the midline, and both pylorus and limiting ridge (transitional region between the forestomach and corpus) were simultaneously ligated. Consequently, the total capacity of the stomach to hold gastric juice was greatly diminished, resulting in reflux of gastric juice into the esophagus. Following ligation of pylorus and limiting ridge, the test compounds were given intraduodenally (5 ml/kg), and the abdomen was closed by suturing. After 3 hours, rats were killed by ether overdose and the gastroesophageal portion was excised. The lesion in the thoracic esophagus was scored macroscopically, using a lesion index according to the following criteria: no lesion as 0; oedema as 1; reddening as 2; the length of hemorrhagic area <20 mm as 3; the length of hemorrhagic area 20-30 mm as 4; the length of hemorrhagic area 30-40 mm as 5; the length of hemorrhagic area >40 mm or perforation as 6.
The doses of the tested compounds which reduce of 50% the esophagus lesions (ED50) were calculated from the dose-response regression line.

Setting [3] is: Omeprazole 0.5 mg/kg s.c. once a day.
Setting [4] is: Omeprazole 1 mg/kg s.c. once a day.
[5] abbreviates: Omeprazole 2 mg/kg s.c. once a day.
[6] abbreviates: Omeprazole 0.1 mg/kg intraduodenally.
[7] abbreviates: Omeprazole 0.3 mg/kg intraduodenally.
Where [8] appears, read: Omeprazole 1.0 mg/kg intraduodenally.
Where [9] appears, read: Omeprazole 3.0 mg/kg intraduodenally.
[10] abbreviates: Itriglumide 10 mg/kg s.c. once a day.
The mark [11] stands for this setting: Itriglumide 2.5 mg/kg intraduodenally.
[12] abbreviates: Itriglumide 5.0 mg/kg intraduodenally.
The mark [13] stands for this setting: Itriglumide 10 mg/kg intraduodenally.
The mark [14] stands for this setting: Itriglumide 20 mg/kg intraduodenally.

Consider `COc1ccc2[nH]c([S+]([O-])Cc3ncc(C)c(OC)c3C)nc2c1` (centres unmarked) [Omeprazole], for which the “% Protection vs. control” value in test [1] (setting [3]) was found to be 17.5%; in test [1] (setting [4]) it was 28.0%; in test [1] (setting [5]) it was 49.1%. Also, the “Survival Rate (%)” value in test [1] (setting [3]) worked out at 80%; in test [1] (setting [4]), 90%; in test [1] (setting [5]), 90%. The entries for the “Total average size of ulcers (mm^2)” value in test [1] (setting [3]), in test [1] (setting [4]) and in test [1] (setting [5]) were 47 mm^2, 41 mm^2 and 29 mm^2, respectively. Also, the “Occurrence of Esophagitis” value in test [1] (setting [3]) is reported as 6/8; in test [1] (setting [4]), 6/9; in test [1] (setting [5]) it was 3/9. For the same compound, the ED50 in test [1] (Rattus norvegicus, sc, 360 h, Omeprazole alone, s.c. once a day) came to 2.2 mg/kg; in test [2], 4.9 mg/kg. The “% Effect vs. control” value in test [2] (setting [6]) is recorded as 3.4%; in test [2] (setting [7]) it was 0%; in test [2] (setting [8]) it was 17.2%; in test [2] (setting [9]), 53.4%. The “Average Score lesions” value in test [2] (setting [6]) turned out to be 5.6; in test [2] (setting [7]), 5.8; in test [2] (setting [8]), 4.8; in test [2] (setting [9]), 2.7.

For the compound `Cc1cc(C)c(NC(=O)C[C@H](CC(=O)O)c2cccc3ccccc23)c(C(=O)N2CCC3(CCCC3)CC2)c1` [Itriglumide, (R)-1-napthalenepropanoic acid-β[2[(2-(8-azaspiro[4.5.]dec-8-ylcarbonyl)4,6-dimethylphenyl]amino]-2-oxoethyl]], in test [1] (setting [10]), the “% Protection vs. control” value was 42.1%, the “Survival Rate (%)” value was determined as 90%, the “Total average size of ulcers (mm^2)” value came out at 33 mm^2 and the “Occurrence of Esophagitis” value is on record as 4/9. In test [2] (setting [11]), the “% Effect vs. control” value turned out to be 0% and the “Average Score lesions” value amounted to 5.2. In test [2] (setting [12]), the “% Effect vs. control” value turned out to be 27.5% and the “Average Score lesions” value worked out at 3.7. In addition, in test [2] (setting [13]), the “% Effect vs. control” value was 51.0% and the “Average Score lesions” value came out at 2.5. In addition, in test [2] (setting [14]), the “% Effect vs. control” value was 82.3% and the “Average Score lesions” value is 0.9. In test [2], the ED50 worked out at 9.1 mg/kg.

The values are drawn from patent publication US20110045033A1, “Combination of Itriglumide and Proton Pump Inhibitors in the Treatment of Gastrointestinal and Related Disorders” (priority 2005, published 2011).
